Laboratory results taken from patent publication US12459891B2, “1-[1-(4-benzyloxy-3,5-difluoro-benzoyl)-4-fluoro-pyrrolidine-2-carbonyl]-pyrrolidine-2-carbonitrile” (ACCURE THERAPEUTICS, S.L., priority 2020, dated 2025).

Columns and labels:
[1] = Microsomal stability (rat); assay type: in vitro ADME; conditions: Sprague-Dawley, pooled liver microsomes, pH 7.4; rat liver microsomes 0.5 mg/mL, 1 μM compound, 37° C., NADPH regenerating system
Method: The stability of the compounds in rat (Sprague-Dawley) pooled liver microsomes (catalog number 452501) was investigated according to the instructions provided by the vendor (BD Bioscience). A stock solution (500 μM) of the compound to be tested was prepared in DMSO. Two μL of the compounds were incubated at 1 μM final concentration in a mixture of: • 713 μL of H2O • 200 μL of 0.5 M potassium phosphate (pH 7.4) • 50 μL of NADPH regenerating system solution A (BD Bioscience, catalog number 451220) • 10 μL of NADPH regenerating system solution B (BD Bioscience, catalog number 451200)
The resulting mixture was warmed to 37° C. for 5 min. After which, 25 μL of liver microsomes were added at a final concentration of 0.5 mg/mL. The mixture was incubated at 37° C. with orbital agitation (100 rpm). At selected time points, 100 μL aliquots were extracted and mixed with 100 μL of acetonitrile. The obtained precipitate was shake in a vortex for 1 minute. Samples were kept at 4° C. for 30 min, after which, samples were centrifuged at 20,000×g at 4° C. for 30 min. The supernatant was filtered out and subsequently analysed by UPLC-MS. All stability tests were performed in duplicates.

[2] = Parallel artificial membrane permeability assay (PAMPA), BBB passive diffusion; assay type: in vitro ADME; conditions: pH 7.4, 4 hours; for % T (percentage of transport), PAMPA / % R (compound retention of the phospholipid membrane), PAMPA: 200 μM; for Papp at 4 h, 200 μM: pig, PAMPA, room temperature, read-out: Effective permeability Pe
Method: Parallel artificial membrane permeability assay (PAMPA) described in Kansy M et al., J. Med. Chem. 1998; 41(7):1007-10 was used to determine the capacity of compounds to cross the Blood-Brain Barrier (BBB) by passive diffusion (Di L et al., Eur. J. Med. Chem. 2003; 38(3):223-32). The effective permeability (Pe) of the compounds was measured at an initial concentration of 200 μM. The buffer solution was prepared from a commercial concentrated one following the manufacturer's instructions. pH was adjusted to 7.4 using a 0.5 M NaOH solution. A stock solution of new compound was prepared in DMSO and diluted with buffer solution to a final 200 μM concentration (0.5% DMSO content). The PAMPA sandwich was separated and each donor well was filled with 200 μL of the compound solution. The acceptor plate was placed into the donor plate, ensuring that the underside of the membrane was in contact with buffer. 4 μL of the mixture of phospholipids (20 mg/mL) in dodecane was added to the filter of each well, and 200 μL of buffer solution was added to the each acceptor well. The plate was covered and incubated at room temperature in a saturated humidity atmosphere for 4 hours under orbital agitation at 100 rpm. After 4 hours, the contents of the acceptor and donor compartments were analyzed by HPLC: 150 μL of each well from the donor plate and 150 μL of each well from the acceptor plate were transferred to HPLC vials, injecting each sample into a reverse-phase C18 column (150 mm×4.6 mm×5 μm, 100 Å) (100 μL/injection from the acceptor wells, 10 μL/injection from the donor wells and for t0 references). Transport was also confirmed by MALDI-TOF spectrometry.
The phospholipid mixture used was a porcine polar brain lipid extract, provided by Avanti polar lipids, with the following composition: 12.6% phosphatidylcholine (PC), 33.1% phosphatidylethanolamine (PE), 18.5% phosphatidylserine (PS), 4.1% phosphatidylinositol (PI), 0.8% phosphatidic acid and 30.9% of other compounds.
The effective permeability (Pe) after 4 hours was calculated using equation 2, the percentage of transport (T %) was calculated using equation 3 and the compound retention (R %) of the phospholipid membrane using equation 4:
[formula] [formula] [formula] wherein: • t is time (h) • CA(t) is the compound concentration in the acceptor well at time t, CD(t) is the compound concentration in donor well at time t • and CD(t0) is the compound concentration in the donor well at t0.

[3] = PK in mice after intravenous bolus; assay type: in vivo; conditions: male, Swiss Albino, mouse, plasma, 1 mg/kg intravenous bolus; for Vd: read-out: Vss
Method: The pharmacokinetics of the compounds following intravenous bolus administration was conducted in male Swiss Albino mice. The study was conducted in accordance with the guidelines of the Institutional Animal Ethics Committee (IAEC) and in accordance with the requirements of Committee for the Purpose of Control and Supervision of Experiments on Animals (CPCSEA), India.
Study was conducted in 12 mice per compound using sparse sampling design (n=3/time point) to produce composite profile. The compounds were dissolved in 2% Twee80® in saline (0.9 NaCl) at a concentration of 0.5 mg/mL. Mice were administered a single dose of 1 mg/kg of the compound solution by intravenous bolus through lateral tail vein using 1 mL BD syringe guided with 26G needle at a dose volume of 2 mL/kg.
Blood samples were collected (n=3 per time point) at 0.083, 0.25, 0.5, 1, 2, 4, 6, 8, 24 and 48 h post-dose. At each time point, 120 μL of blood was collected by retro orbital plexus puncture and transferred into a labeled microfuge tube containing 200 mM K2EDTA solution (20 μL per mL of blood). The blood samples were centrifuged at 5000×g for 5 min at 4±2° C. Plasma samples were stored below −60° C. until bioanalysis.
Plasma samples were analyzed using a LC-MS/MS method with LLOQ of 1.06 ng/mL. Pharmacokinetic parameters in plasma were calculated using the non-compartmental analysis tool of the validated Phoenix WinNonlin® software (version 6.3). The area under the concentration time curve (AUClast) was calculated by linear trapezoidal rule. Peak plasma concentration (Cmax) and time to reach the peak plasma concentration (Tmax) were the observed values. Clearance (CL) and volume of distribution (Vss) were predicted values.

Row | SMILES | half-life at 1 μM [1] | % T (percentage of transport), PAMPA [2] | AUC(0-t) [3] | clearance [3] | Vd [3] | % R (compound retention of the phospholipid membrane), PAMPA [2] | Papp at 4 h, 200 μM [2]
1 | N#C[C@@H]1CCCN1C(=O)[C@@H]1CC(F)(F)CN1C(=O)c1ccc(OCc2ccccc2)c(F)c1 [Comp Ex. 4, (S)-1-((S)-1-(4-(benzyloxy)-3-fluorobenzoyl)-4,4-difluoropyrrolidine-2-carbonyl) pyrrolidine-2-carbonitrile] | < 5 min | 10.43% | 22.7 ng·h/mL | 697 mL/min/kg | 9.06 L/kg |  | 
2 | N#C[C@@H]1CCCN1C(=O)[C@@H]1C[C@@H](F)CN1C(=O)c1cc(F)c(OCc2ccccc2)c(F)c1 [Example 1, (S)-1-((2S,4R)-1-(4-(benzyloxy)-3,5-difluorobenzoyl)-4-fluoropyrrolidine-2-carbonyl)pyrrolidine-2-carbonitrile] | 12 min | 18.1% | 127 ng·h/mL | 99.6 mL/min/kg | 1.19 L/kg | 24% | 4.7 ×10⁻⁶ cm/s
3 | COc1cc(C(=O)N2CC(F)(F)C[C@H]2C(=O)N2CCC[C@H]2C#N)cc(OC)c1OCc1ccccc1 [Comp Ex. 3, (S)-1-((2S)-1-(4-(benzyloxy)-3,5-dimethoxybenzoyl)-4,4-difluoropyrrolidine-2-carbonyl)pyrrolidine-2-carbonitrile] | < 5 min | 29.92% | 131 ng·h/mL | 126 mL/min/kg | 0.64 L/kg | 10.93% | 22.1 ×10⁻⁶ cm/s
